Assay results as given in patent publication US20040023862A1, “Uses of bombesin receptor 3” (SmithKline Beedham p. l. c., priority 2000, published 2004).
Non-standard residues stand in square brackets, D forms with d. Residues, ends and D or L forms follow the SMILES beside them. Nle = CCCC[C@H](N)C(=O)O; βAla = NCCC(=O)O

How the values were obtained:
BB2 receptor = BB2 receptor (Homo sapiens, UniProt P30550); details: from Smart (1998); cited from earlier work
BB1 receptor = BB1 receptor (Homo sapiens, UniProt P28336); details: from Smart (1998); cited from earlier work
[1] = tested on: organotypic hippocampal slice cultures; assay: Oxygen/glucose deprivation model in organotypic hippocampal slice cultures; assay type: cell-based
cerebellar granule cells = assay: Glutamate-induced excitotoxicity in cerebellar granule cells; assay type: cell-based
Text: However, in the cerebellar granule cells [D-Phe^6, βAla^11, Phe^13, Nle^14]Bombesin(6-14) had no effect on glutamate-induced excitotoxicity.

hippocampal neurones = assay: Neurotoxicity assay (MTT cell survival) in primary hippocampal cell culture; assay type: cell-based, rat; details: sub-maximal neurotoxicity by Mg-free Locke's solution with glycine and histamine, MTT 24 h after insult
Protocol: Hippocampi were isolated from embryonic Sprague Dawley rats (gestational age 17.5 days; Charles River), incubated with 0.08% (w/v) trypsin, and dissociated in Neurobasal medium containing 10% heat-inactivated fetal calf serum (Skaper et al.(1990) Methods in Neurosciences, Vol. 2 (Conn P. M., ed), pp. 17-33 Academic Press, San Diego). Cells were pelleted by centrifugation (200 g, 5 min) and resuspended in Neurobasal medium containing B27 supplements (with antioxidants), 25 μM glutamate, 1 mM sodium pyruvate, 2 mM L-glutamine, 50 U/ml penicillin, and 50 μg/ml streptomycin. The cell suspension was plated onto poly-D-lysine (10 μg/ml) coated 48-well culture plates (Nunc), at a density of 4.5×10^4 cells per cm^2. Cultures were maintained at 37° C. in a humidified atmosphere of 5% CO2-95% air. […]
Cultures were washed once with Locke's solution (pH 7.0-7.4) (Skaper et al. (1990) supra) with or without 1 mM magnesium chloride (MgCl2). […] Cell survival was quantified 24 h after the insult by a colorimetric reaction with 3-(4,5-dimethylthiazol-2-yl)-2,5-diphenyltetrazolium bromide (MTT) (Mosmann (1983) J. Immunol. Methods 65:55-63; Manthorpe et al. (1986) Dev. Brain Res. 25:191-198; Skaper et al., (1990) supra). Absolute MTT values obtained were normalized and expressed as a percentage of sham-treated sister cultures (defined as 100%).

BRS3 = target: T1, BRS3 (Homo sapiens, UniProt P32247); details: background statement, in words; cited from earlier work
T1 sequence (P32247 1-399): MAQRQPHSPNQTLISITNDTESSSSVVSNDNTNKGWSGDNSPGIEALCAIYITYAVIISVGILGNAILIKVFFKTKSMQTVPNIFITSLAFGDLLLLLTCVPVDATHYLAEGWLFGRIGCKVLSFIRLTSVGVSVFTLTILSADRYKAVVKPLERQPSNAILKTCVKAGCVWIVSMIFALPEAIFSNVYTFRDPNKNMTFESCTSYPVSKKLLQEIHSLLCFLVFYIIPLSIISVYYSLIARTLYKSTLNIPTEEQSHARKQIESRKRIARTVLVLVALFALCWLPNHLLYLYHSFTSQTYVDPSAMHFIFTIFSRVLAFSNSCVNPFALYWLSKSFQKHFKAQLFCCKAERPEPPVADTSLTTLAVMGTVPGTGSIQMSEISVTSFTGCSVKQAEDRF

[2] = target: T2, endogenous human BRS-3 in NCI-N417 cells (Homo sapiens, UniProt P32247); assay: Agonist pharmacology, FLIPR intracellular calcium (Fluo-3AM) in NCI-N417 cells; assay type: cell-based
T2 construct: Agonist Pharmacology at the Endogenous Human BRS-3 in NCI-N417 Cells; endogenous in cells; host or cells: NCI-N417 cells
T2 sequence (P32247 1-399): T1 sequence (P32247 1-399)
Protocol: Agonist Pharmacology at the Endogenous Human BRS-3 in NCI-N417 Cells
NCI-N417 cells were seeded into Costar 96 well black walled plates (30,000 cells per well), cultured overnight in RPMI 1640 medium containing 10% foetal calf serum and 1% L-glutamine, and then loaded with the cytoplasmic calcium indicator Fluo-3AM (4 μM) in the presence of 2.5 mM probenecid at 37° C. for 60 min. The cells were then washed 4× with, and finally resuspended in, Tyrode's medium containing 2.5 mM probenecid. Fluorescence was then monitored using a FLIPR (λEX=488 nm, λEM=540 nm) before and after the addition of various ligands (10 pM-10 μM), as described previously (Smart et al (1999). Br. J. Pharmacol. 128:1-4).

BB1 receptor, sequence (P28336 whole entry): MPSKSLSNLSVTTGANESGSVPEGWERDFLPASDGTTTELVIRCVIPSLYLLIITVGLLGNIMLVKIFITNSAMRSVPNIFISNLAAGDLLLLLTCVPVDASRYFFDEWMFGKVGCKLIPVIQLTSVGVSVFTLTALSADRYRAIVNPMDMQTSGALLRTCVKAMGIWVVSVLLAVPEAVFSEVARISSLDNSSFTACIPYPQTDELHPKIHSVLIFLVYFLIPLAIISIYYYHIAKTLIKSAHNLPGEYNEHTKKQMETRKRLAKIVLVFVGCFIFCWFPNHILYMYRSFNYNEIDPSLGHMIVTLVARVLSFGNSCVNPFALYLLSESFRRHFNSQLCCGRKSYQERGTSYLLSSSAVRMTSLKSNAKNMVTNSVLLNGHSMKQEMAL
BB2 receptor, sequence (P30550 whole entry): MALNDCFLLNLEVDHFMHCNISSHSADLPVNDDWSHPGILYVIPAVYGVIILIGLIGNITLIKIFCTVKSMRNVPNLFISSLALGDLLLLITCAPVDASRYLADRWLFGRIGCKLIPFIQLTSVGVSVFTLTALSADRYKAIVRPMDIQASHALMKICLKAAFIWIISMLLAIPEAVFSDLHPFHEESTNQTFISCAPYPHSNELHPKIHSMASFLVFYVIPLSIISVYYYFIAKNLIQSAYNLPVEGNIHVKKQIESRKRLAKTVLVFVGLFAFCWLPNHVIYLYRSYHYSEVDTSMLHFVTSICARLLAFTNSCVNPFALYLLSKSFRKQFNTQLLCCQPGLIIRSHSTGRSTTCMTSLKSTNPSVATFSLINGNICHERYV

Compound	activity at the BB2 receptor (BB2 receptor)	affinity at the BB1 receptor (BB1 receptor) [nM]	neuroprotection [1]	effect on glutamate-induced excitotoxicity (cerebellar granule cells)	pEC50 for inhibition of damage (hippocampal neurones)	affinity at BRS3 (BRS3)	EC50 [2] [nM]	Efficacy ([2]; calcium mobilisation, FLIPR, NCI-N417 cells, efficacy in words)
CC(C)c1cccc(C(C)C)c1NC(=O)N[C@@](C)(Cc1c[nH]c2ccccc12)C(=O)NCC1(c2ccccn2)CCCCC1 [PD 165929]	inactive	7.6						
CCCC[C@H](NC(=O)[C@H](Cc1ccccc1)NC(=O)[C@H](Cc1c[nH]cn1)NC(=O)CCNC(=O)[C@@H](NC(=O)[C@H](C)NC(=O)[C@H](Cc1c[nH]c2ccccc12)NC(=O)[C@H](CCC(N)=O)NC(=O)[C@H](N)Cc1ccccc1)C(C)C)C(N)=O [[D-Phe^6, βAla^11, Phe^13, Nle^14]Bombesin(6-14)] (H-[dF]QWAV[βAla]HF[Nle]-NH2; N-terminus and C-terminus assumed)			neuroprotective	no effect	7.3±0.1	low nM affinity	13.2	full
